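Assay format: 96-well plates, 48-hour exposure. Here, GI50 denotes the concentration required for 50% inhibition of growth. TGI marks complete inhibition of growth.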
Key:
Experiment in all cases: DTP human tumour cell line panel, 48 h
[1] = system: 786-0 renal
[2] = system: A498 renal
[3] = system: A549 NSCLC
[4] = system: ACHN renal
[5] = system: BT-549 breast
[6] = system: CAKI-1 renal
[7] = system: CCRF-CEM leukemia
[8] = system: COLO 205 colon
[9] = system: DU-145 prostate
[10] = system: EKVX NSCLC
[11] = system: HCC-2998 colon
[12] = system: HCT-116 colon
[13] = system: HCT-15 colon
[14] = system: HL-60(TB) leukemia
[15] = system: HOP-62 NSCLC
[16] = system: HOP-92 NSCLC
[17] = system: HS 578T breast
[18] = system: HT29 colon
[19] = system: IGROV1 ovarian
[20] = system: K-562 leukemia
[21] = system: KM12 colon
[22] = system: LOX IMVI melanoma
[23] = system: M14 melanoma
[24] = system: MALME-3M melanoma
[25] = system: MCF7 breast
[26] = system: MDA-MB-231 breast
[27] = system: MOLT-4 leukemia
[28] = system: NCI-H226 lung
[29] = system: NCI-H23 lung
[30] = system: NCI-H460 lung
[31] = system: NCI-H522 lung
[32] = system: NCI/ADR-RES ovarian
[33] = system: OVCAR-3 ovarian
[34] = system: OVCAR-4 ovarian
[35] = system: OVCAR-5 ovarian
[36] = system: OVCAR-8 ovarian
[37] = system: PC-3 prostate
[38] = system: RPMI-8226 leukemia
[39] = system: SF-268 CNS
[40] = system: SF-295 CNS
[41] = system: SF-539 CNS
[42] = system: SK-MEL-2 melanoma
[43] = system: SK-MEL-28 melanoma
[44] = system: SK-MEL-5 melanoma
[45] = system: SK-OV-3 ovarian
[46] = system: SN12C renal
[47] = system: SNB-19 CNS
[48] = system: SR leukemia
[49] = system: SW-620 colon
[50] = system: T-47D breast
[51] = system: TK-10 renal
[52] = system: U251 CNS
[53] = system: UACC-257 melanoma
[54] = system: UACC-62 melanoma
[55] = system: UO-31 renal

COc1ccc(C(=O)c2cc3c(N)c(C(=O)Nc4cccc(Cl)c4C)sc3nc2C)cc1
GI50 [1]: 187 nM | TGI [1]: > 25 µM | GI50 [2]: 69.1 nM | TGI [2]: 558 nM | GI50 [3]: 136 nM | TGI [3]: > 25 µM | GI50 [4]: 202 nM | TGI [4]: > 25 µM | GI50 [5]: 250 nM | TGI [5]: > 25 µM | GI50 [6]: 99.5 nM | TGI [6]: > 25 µM | GI50 [7]: 88.9 nM | TGI [7]: > 25 µM | GI50 [8]: 109 nM | TGI [8]: 7.13 µM | GI50 [9]: 105 nM | TGI [9]: > 25 µM | GI50 [10]: 134 nM | TGI [10]: > 25 µM | GI50 [11]: 280 nM | TGI [11]: > 25 µM | GI50 [12]: 98.9 nM | TGI [12]: > 25 µM | GI50 [13]: 101 nM | TGI [13]: > 25 µM | GI50 [14]: 75.9 nM | TGI [14]: 226 nM | GI50 [15]: 154 nM | TGI [15]: > 25 µM | GI50 [16]: 292 nM | TGI [16]: 6.67 µM | GI50 [17]: 83.2 nM | TGI [17]: > 25 µM | GI50 [18]: 86.3 nM | TGI [18]: > 25 µM | GI50 [19]: 145 nM | TGI [19]: > 25 µM | GI50 [20]: 90.1 nM | TGI [20]: > 25 µM | GI50 [21]: 106 nM | TGI [21]: > 25 µM | GI50 [22]: 154 nM | TGI [22]: > 25 µM | GI50 [23]: 71.5 nM | TGI [23]: > 25 µM | GI50 [24]: 205 nM | TGI [24]: > 25 µM | GI50 [25]: 93.2 nM | TGI [25]: > 25 µM | GI50 [26]: 142 nM | TGI [26]: > 25 µM | GI50 [27]: 153 nM | TGI [27]: > 25 µM | GI50 [28]: 277 nM | TGI [28]: > 25 µM | GI50 [29]: 173 nM | TGI [29]: > 25 µM | GI50 [30]: 91.7 nM | TGI [30]: > 25 µM | GI50 [31]: 62.3 nM | TGI [31]: > 6.78 µM | GI50 [32]: 86 nM | TGI [32]: > 25 µM | GI50 [33]: 87.2 nM | TGI [33]: > 25 µM | GI50 [34]: 851 nM | TGI [34]: > 25 µM | GI50 [35]: 266 nM | TGI [35]: > 25 µM | GI50 [36]: 125 nM | TGI [36]: > 25 µM | GI50 [37]: 122 nM | TGI [37]: > 25 µM | GI50 [38]: 91.8 nM | GI50 [39]: 419 nM | TGI [39]: > 25 µM | GI50 [40]: 83.3 nM | TGI [40]: > 25 µM | GI50 [41]: 67.9 nM | TGI [41]: 169 nM | GI50 [42]: 215 nM | TGI [42]: > 25 µM | GI50 [43]: > 25 µM | TGI [43]: > 25 µM | GI50 [44]: 109 nM | TGI [44]: 2450 nM | GI50 [45]: 161 nM | TGI [45]: > 25 µM | GI50 [46]: 155 nM | TGI [46]: > 25 µM | GI50 [47]: 117 nM | TGI [47]: > 25 µM | GI50 [48]: 61.3 nM | TGI [48]: 511 nM | GI50 [49]: 105 nM | TGI [49]: > 25 µM | GI50 [50]: 153 nM | TGI [50]: > 25 µM | GI50 [51]: > 25 µM | TGI [51]: > 25 µM | GI50 [52]: 104 nM | TGI [52]: > 25 µM | GI50 [53]: > 6.12 µM | TGI [53]: > 25 µM | GI50 [54]: 120 nM | TGI [54]: > 25 µM | GI50 [55]: 634 nM | TGI [55]: > 25 µM

— PubChem BioAssay (NCI)
